# Source: publication PMC10704959 (Biochemistry, 2023)
# Biological target: MoLOX (Pyricularia oryzae, UniProt G4NAP4)
# Details: read-out: KMμM
# Sequence of MoLOX (G4NAP4 17-619 limits assumed): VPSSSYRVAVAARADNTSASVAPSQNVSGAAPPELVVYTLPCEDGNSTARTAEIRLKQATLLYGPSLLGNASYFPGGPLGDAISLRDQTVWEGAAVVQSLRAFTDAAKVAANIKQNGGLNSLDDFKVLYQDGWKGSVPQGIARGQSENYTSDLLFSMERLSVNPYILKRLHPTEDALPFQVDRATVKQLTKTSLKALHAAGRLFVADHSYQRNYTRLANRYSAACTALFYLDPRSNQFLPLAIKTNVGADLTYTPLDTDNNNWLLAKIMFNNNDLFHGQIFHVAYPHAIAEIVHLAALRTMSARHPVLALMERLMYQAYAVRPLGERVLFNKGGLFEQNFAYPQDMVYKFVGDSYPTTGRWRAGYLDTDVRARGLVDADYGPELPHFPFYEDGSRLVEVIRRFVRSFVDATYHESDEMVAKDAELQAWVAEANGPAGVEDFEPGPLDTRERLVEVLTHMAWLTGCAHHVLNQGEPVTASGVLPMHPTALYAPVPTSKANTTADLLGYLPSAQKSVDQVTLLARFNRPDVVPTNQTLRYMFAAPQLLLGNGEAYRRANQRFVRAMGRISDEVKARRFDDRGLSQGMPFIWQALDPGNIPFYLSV
smiles,measurement,value
"CCCCC/C=C\C/C=C\CCCCCCCC(=O)O [LA, linoleic acid]",Km,14 ± 2 µM
